Experimental data taken from patent publication US20060153844A1, “Methods to trigger, maintain and manipulate immune responses by targeted administration of biological response modifiers into lymphoid organs” (priority 2004, published 2006).

Columns and labels:
[1] = including fatigue, malaise, fever, headache, and lymphocytopenia; cited from earlier work
[2] = tested on: p33-specific CD8+ T cells; test: p33-specific CD8+ T cell function, intracellular interferon-γ by FACS, Imiquimod as adjuvant; assay type: in vivo, C57BL/6 mice; details: 10 μg p33, day 8
Method: C57BL/6 mice were immunized with the immunodominant MHC class I binding epitope of the lymphocytic choriomeninigitis virus glycoprotein, p33 (SEQ. ID. No. 11). On day 8 after immunization mice were bled to analyze p33-specific CD8+ T cell function by FACS staining of CD8, CD44 and intracellular interferon-γ production after a 4-hour in vitro stimulation with p33. All groups of mice received the same dose of 10 μg p33. The adjuvant Imiquimod, however, was administered by different routes and in different doses. Mice were either injected intralymphatically with 250 μg or 25 μg of Imiquimod, or they were injected subcutaneously with 250 μg or 25 μg of Imiquimod. Control mice were immunized with p33, but received no Imiquimod.

IFN-gamma = IFN-gamma in supernatants of restimulated splenocytes after s.c. peptide in IFA; assay type: in vivo, mice; details: subcutaneous immunization in combination with IFA; compared to non-self PSMA 730-739
Method: Alternatively, mice were immunized with the PSMA 288-297 or PSMA 730-739 epitope peptide in IFA and peptide by subcutaneous injection (5 μg peptide in 100 μl, twice, at day 0 and 7). One week after the last administration, splenocytes were stimulated ex vivo with 5 μg (FIG. 7, top panel), 10 μg (FIG. 7, middle panel) and 20 μg/ml (FIG. 7, bottom panel) of peptide for 3 days and the IFN-gamma concentration in cell supernatants measured by ELISA.

Compound | toxicity when systemically administered [1] | induction of p33-specific CD8+ T cells ([2]; 250 μg Imiquimod intralymphatically) | induction of p33-specific CD8+ T cells ([2]; 250 μg Imiquimod subcutaneous) | immune responsiveness (IFN-gamma) (IFN-gamma)
CC(C)Cn1cnc2c(N)nc3ccccc3c21 [Imiquimod, 1-(2-methylpropyl)-1H-imidazol [4,5-c]quinolin-4-amine] | significant toxicity when systemically administered | enhanced induction of p33-specific CD8+ T cells | not after subcutaneous administration | 
PSMA 288-297: SEQ. ID. No. 5, self epitope conserved between mouse and human (GLPSIPVHPI; Synthetically prepared peptide sequence) |  |  |  | decreased immune responsiveness
